Measured values published in DBAASP.
Values after ≈ are worked out from the molar mass of the structure shown. Each block holds one molecule with its values, some of them ahead of it.

What was measured:
Test in all cases: ≥ marks a high value that may be exact or a test limit, other limits are often not marked, values filed in µg/mL are converted to µM
[1] = tested on: Serratia marcescens ATCC 4112
[2] = tested on: Bacillus megaterium ATCC 10778
[3] = tested on: Escherichia coli SBS 363
[4] = tested on: Candida tropicalis IOC 4560
[5] = tested on: Micrococcus luteus A270
[6] = tested on: Candida albicans MDM8
[7] = tested on: Pseudomonas aeruginosa ATCC 27853
[8] = tested on: Enterobacter cloacae beta-12
[9] = tested on: Staphylococcus aureus ATCC 29213
[10] = tested on: Bacillus subtilis ATCC 6633
[11] = tested on: Bacillus subtilis KCTC 3068
[12] = tested on: Proteus vulgaris KCTC 2433
[13] = tested on: Pseudomonas aeruginosa KCTC 1637
[14] = tested on: Staphylococcus epidermidis KCTC 1917
[15] = tested on: Escherichia coli KCTC 1682
[16] = tested on: Staphylococcus aureus KCTC 1621
[17] = tested on: Salmonella typhimurium KCTC 1926
[18] = tested on: Enterococcus faecalis KCTC 2011
[19] = tested on: Escherichia coli KCTC 2223
[20] = tested on: Micrococcus luteus ATCC 10240
[21] = tested on: Staphylococcus aureus ATCC 15752
[22] = tested on: Salmonella typhimurium KCTC 2370
[23] = tested on: Escherichia coli BL21AI
[24] = tested on: Micrococcus luteus DSM 1790
[25] = tested on: Salmonella enterica subsp. enterica serovar Senftenberg CICC 21502
[26] = tested on: Salmonella enterica subsp. enterica serovar Anatum CICC 21498
[27] = tested on: Salmonella enterica subsp. enterica serovar Jerusalem CICC 21651
[28] = tested on: Staphylococcus epidermidis ATCC 12228
[29] = tested on: Salmonella enterica subsp. enterica serovar Blockley CICC 21489
[30] = tested on: Salmonella enterica subsp. enterica serovar Typhimurium CICC 21483
[31] = tested on: Salmonella enterica subsp. enterica serovar Montevideo CICC 21588
[32] = tested on: Salmonella enterica subsp. enterica serovar Miami CICC 21509
[33] = tested on: Salmonella enterica subsp. enterica serovar Enteritidis CMCC 50041
[34] = tested on: Salmonella enterica subsp. enterica serovar Saintpaul CICC 21486
[35] = tested on: Salmonella enterica subsp. enterica serovar Wandsworth CICC 21504
[36] = tested on: Escherichia coli O157:H7
[37] = tested on: Salmonella enterica subsp. enterica serovar Meleagridis CICC 21511
[38] = tested on: Salmonella enterica subsp. enterica serovar Dakar CICC 21507
[39] = tested on: Salmonella enterica subsp. enterica serovar Dublin CICC 21497
[40] = tested on: Salmonella enterica subsp. enterica serovar Braenderup ATCC H9812
[41] = tested on: Salmonella enterica subsp. enterica serovar Thompson CICC 21480
[42] = tested on: Candida albicans ATCC 10231
[43] = tested on: Enterococcus faecalis ATCC 29212
[44] = tested on: Salmonella enterica subsp. enterica serovar Adelaide CICC 21505
[45] = tested on: Salmonella enterica subsp. arizonae CICC 21506
[46] = tested on: Salmonella enterica subsp. enterica serovar Heidelberg CICC 21487
[47] = tested on: Salmonella enterica subsp. enterica serovar Kentucky CICC 21488
[48] = tested on: Staphylococcus aureus ATCC 43300
[49] = tested on: Salmonella enterica subsp. enterica serovar Bonn CICC 21677
[50] = tested on: Salmonella enterica subsp. enterica serovar Eastbourne CICC 21508
[51] = tested on: Salmonella enterica subsp. enterica serovar Aberdeen CICC 21492
[52] = tested on: Salmonella typhimurium CMCC 50115
[53] = tested on: Salmonella enterica subsp. enterica serovar Bovismorbificans CICC 21499
[54] = tested on: Salmonella enterica subsp. enterica serovar Potsdam CICC 21500
[55] = tested on: Salmonella enterica subsp. enterica serovar Agona CICC 21586

SMILES: CC(C)[C@H](NC(=O)[C@H](CCCCN)NC(=O)[C@@H](N)CCCN=C(N)N)C(=O)N[C@@H](CCCN=C(N)N)C(=O)NCC(=O)N1CCC[C@H]1C(=O)N1CCC[C@H]1C(=O)O [RKVRGPP]
- MIC [19]: ≥ 32 µM
- MIC [20]: ≥ 32 µM
- MIC [21]: ≥ 32 µM
- MIC [22]: ≥ 32 µM

SMILES: CC[C@H](C)[C@H](NC(=O)[C@H](CCCN=C(N)N)NC(=O)[C@H](CCCN=C(N)N)NC(=O)[C@@H]1CCCN1C(=O)[C@@H]1CCCN1C(=O)[C@@H](NC(=O)[C@@H]1CCCN1C(=O)[C@H](CCCN=C(N)N)NC(=O)[C@@H]1CCCN1C(=O)[C@H](CC(C)C)NC(=O)[C@H](Cc1ccc(O)cc1)NC(=O)[C@@H]1CCCN1C(=O)[C@@H]1CCCN1C(=O)[C@H](CCCCN)NC(=O)[C@H](CC(=O)O)NC(=O)[C@@H](N)C(C)C)[C@@H](C)O)C(=O)N[C@@H](Cc1ccc(O)cc1)C(=O)N[C@@H](CC(N)=O)C(=O)O [VDKPPYLPRPTPPRRIYN]
- MIC [23]: ≥ 57.4 µM
- MIC [24]: 28.7 µM (≈ 62.5 µg/mL)

Results, then the molecule that gave them:

- MIC [1]: 0.4 µM (≈ 0.62 µg/mL)
- MIC [2]: 1.6 µM (≈ 2.48 µg/mL)
- MIC [3]: 1.6 µM (≈ 2.48 µg/mL)
- MIC [4]: 1.6 µM (≈ 2.48 µg/mL)
- MIC [5]: 1.6 µM (≈ 2.48 µg/mL)
- MIC [6]: 3.1 µM (≈ 4.8 µg/mL)
- MIC [7]: 12.5 µM (≈ 19.4 µg/mL)
- MIC [8]: 12.5 µM (≈ 19.4 µg/mL)
- MIC [9]: 1.6 µM (≈ 2.48 µg/mL)
- MIC [10]: 0.8 µM (≈ 1.24 µg/mL)
SMILES: CC(C)C[C@H](NC(=O)[C@H](C)NC(=O)[C@H](CCCN=C(N)N)NC(=O)[C@H](CC(C)C)NC(=O)[C@@H](N)Cc1ccccc1)C(=O)N[C@@H](Cc1c[nH]c2ccccc12)C(=O)N[C@@H](CC(N)=O)C(=O)N[C@H](C(=O)N[C@@H](C)C(=O)N[C@@H](CCCCN)C(=O)N[C@@H](CO)C(=O)N[C@H](C(=O)N[C@@H](Cc1ccccc1)C(N)=O)C(C)C)C(C)C [FLRALWNVAKSVF]

- MIC [11]: 11.3 µM (≈ 21.6 µg/mL)
- MIC [12]: ≥ 32 µM
- MIC [13]: ≥ 32 µM
- MIC [14]: 22.6 µM (≈ 43.2 µg/mL)
- MIC [15]: 22.6 µM (≈ 43.2 µg/mL)
- MIC [16]: 8 µM (≈ 15.3 µg/mL)
- MIC [17]: ≥ 32 µM
- MIC [18]: 16 µM (≈ 30.5 µg/mL)
SMILES: CC(C)C[C@H](NC(=O)[C@H](CC(C)C)NC(=O)[C@H](CCCCN)NC(=O)[C@H](CC(C)C)NC(=O)[C@H](CC(C)C)NC(=O)[C@H](CCCCN)NC(=O)[C@H](CCCCN)NC(=O)[C@H](CC(C)C)NC(=O)[C@H](CC(C)C)NC(=O)[C@H](CCCCN)NC(=O)[C@H](CCCCN)NC(=O)[C@H](Cc1c[nH]c2ccccc12)NC(=O)[C@@H](N)CCCCN)C(=O)N[C@@H](CCCCN)C(=O)N[C@@H](CCCCN)C(=O)O [KWKKLLKKLLKLLKK]

- MIC [25]: 2.16 µM (≈ 3.99 µg/mL)
- MIC [26]: 2.16 µM (≈ 3.99 µg/mL)
- MIC [27]: 4.31 µM (≈ 7.99 µg/mL)
- MIC [28]: 2.16 µM (≈ 3.99 µg/mL)
- MIC [29]: 4.31 µM (≈ 7.99 µg/mL)
- MIC [30]: 2.16 µM (≈ 3.99 µg/mL)
- MIC [31]: 2.16 µM (≈ 3.99 µg/mL)
- MIC [32]: 4.31 µM (≈ 7.99 µg/mL)
- MIC [33]: 4.31 µM (≈ 7.99 µg/mL)
- MIC [34]: 1.08 µM (≈ 2 µg/mL)
- MIC [35]: 2.16 µM (≈ 3.99 µg/mL)
- MIC [36]: 2.16 µM (≈ 3.99 µg/mL)
- MIC [37]: 2.16 µM (≈ 3.99 µg/mL)
- MIC [38]: 2.16 µM (≈ 3.99 µg/mL)
- MIC [39]: 2.16 µM (≈ 3.99 µg/mL)
- MIC [40]: 2.16 µM (≈ 3.99 µg/mL)
- MIC [41]: 2.16 µM (≈ 3.99 µg/mL)
- MIC [42]: 1.08 µM (≈ 2 µg/mL)
- MIC [43]: 1.08 µM (≈ 2 µg/mL)
- MIC [44]: 2.16 µM (≈ 3.99 µg/mL)
- MIC [45]: 2.16 µM (≈ 3.99 µg/mL)
- MIC [46]: 1.08 µM (≈ 2 µg/mL)
- MIC [47]: 2.16 µM (≈ 3.99 µg/mL)
- MIC [48]: 4.31 µM (≈ 7.99 µg/mL)
- MIC [49]: 1.08 µM (≈ 2 µg/mL)
- MIC [9]: 2.16 µM (≈ 3.99 µg/mL)
- MIC [50]: 2.16 µM (≈ 3.99 µg/mL)
- MIC [51]: 2.16 µM (≈ 3.99 µg/mL)
- MIC [52]: 2.16 µM (≈ 3.99 µg/mL)
- MIC [53]: 2.16 µM (≈ 3.99 µg/mL)
- MIC [54]: 1.08 µM (≈ 2 µg/mL)
- MIC [55]: 2.16 µM (≈ 3.99 µg/mL)
SMILES: C[C@@H](O)[C@@H]1NC(=O)[C@@H](NC(=O)[C@H](CCCCN)NC(=O)[C@H](Cc2c[nH]c3ccccc23)NC(=O)[C@H](CCCCN)NC(=O)[C@@H](N)Cc2c[nH]c3ccccc23)CSSC[C@@H](C(=O)N[C@@H](CCCCN)C(=O)N[C@@H](Cc2c[nH]c3ccccc23)C(=O)N[C@@H](CCCCN)C(=O)N[C@@H](Cc2c[nH]c3ccccc23)C(N)=O)NC(=O)CNC(=O)[C@H](CO)NC(=O)[C@H](CCCCN)NC1=O [WKWKCTKSGCKWKW]
